We go through twelve compounds from patent US7795279B2, “Method of inhibiting FLT3 kinase” (Janssen Pharmaceutica NV, priority 2005, dated 2010).

Where a name gives a salt, the structure may show the parent alone.

The subject of the first assay is MV4-11 cells. Nature of the assay: Inhibition of MV4-11 cell proliferation (CellTiterGlo). The note with it: Homo sapiens, 72 hours growth, uncertainty ±20%. The class given is cell-based. The protocol: To assess the cellular potency of compounds of the present invention, FLT3 specific growth inhibition was measured in the leukemic cell line MV4-11 (ATCC Number: CRL-9591). MV4-11 cells are derived from a patient with childhood acute myelomonocytic leukemia with an 11q23 translocation resulting in a MLL gene rearrangement and containing an FLT3-ITD mutation (AML subtype M4)(1,2). MV4-11 cells cannot grow and survive without active FLT3ITD.
To measure proliferation inhibition by compounds of the present invention, the luciferase based CellTiterGlo reagent (Promega), which quantifies total cell number based on total cellular ATP concentration, was used. Cells are plated at 10,000 cells per well in 100 ul of in RPMI media containing penn/strep, 10% FBS and 1 ng/ml GM-CSF or 1 ng/ml IL-3 for MV4-11 and Baf3 cells respectively.
Compound dilutions or 0.1% DMSO (vehicle control) are added to cells and the cells are allowed to grow for 72 hours at standard cell growth conditions (37° C., 5% CO2). For activity measurements in MV4-11 cells grown in 50% plasma, cells were plated at 10,000 cells per well in a 1:1 mixture of growth media and human plasma (final volume of 100 μL). To measure total cell growth an equal volume of CellTiterGlo reagent was added to each well, according to the manufacturer's instructions, and luminescence was quantified. Total cell growth was quantified as the difference in luminescent counts (relative light units, RLU) of cell number at Day 0 compared to total cell number at Day 3 (72 hours of growth and/or compound treatment). One hundred percent inhibition of growth is defined as an RLU equivalent to the Day 0 reading. Zero percent inhibition was defined as the RLU signal for the DMSO vehicle control at Day 3 of growth.
Data points are an average of triplicate samples. […] Inhibition and IC50 data analysis was done with GraphPad Prism using a non-linear regression fit with a multiparamater, sigmoidal dose-response (variable slope) equation.
As to `Cc1cscc1-c1cc(N2CCN(C)CC2)ccc1NC(=O)c1ccc(C#N)o1` [Example 5, 5-Cyano-furan-2-carboxylic acid [4-(4-methyl-piperazin-1-yl)-2-(4-methyl-thiophen-3-yl)-phenyl]-amide], 0.666 µM corresponded to half-maximal inhibition (IC50).
`Cc1ccccc1-c1cc(N2CCN(C)CC2)ccc1NC(=O)c1ccc(C#N)o1` [Example 9, 5-Cyano-furan-2-carboxylic acid [2′-methyl-5-(4-methyl-piperazin-1-yl)-biphenyl-2-yl]-amide]: the IC50 (commonly the concentration at which inhibition is half-maximal) amounted to 1 µM.
Same read-out and setting: with `CN1CCN(c2ccc(NC(=O)c3ccc(C#N)o3)c(C3=CCCCC3)c2)CC1` [Example 11, 5-Cyano-furan-2-carboxylic acid [2-cyclohex-1-enyl-4-(4-methyl-piperazin-1-yl)-phenyl]-amide] the figure was 0.131 µM; with `CN1CCN(c2ccc(NC(=O)c3ccc(C#N)o3)c(C3=CCOCC3)c2)CC1` [Example 12], over 10 µM.
Compound `Cn1ccnc1CN1CCC(c2ccc(NC(=O)c3nc(C#N)c[nH]3)c(C3=CCCC3)c2)CC1` [Example 23, 4-Cyano-1H-imidazole-2-carboxylic acid {2-cyclopent-1-enyl-4-[1-(1-methyl-1 H-imidazol-2-ylmethyl)-piperidin-4-yl]-phenyl}-amide trifluoroacetic acid salt] showed an IC50 of 0.115 µM.
Same read-out and setting: in the case of `N#Cc1c[nH]c(C(=O)Nc2ccc(C3CCN(CCN4CCOCC4)CC3)cc2C2=CCCCC2)n1` [Example 34, 4-Cyano-1H-imidazole-2-carboxylic acid {2-cyclohex-1-enyl-4-[1-(2-morpholin-4-yl-ethyl)-piperidin-4-yl]-phenyl}-amide di-trifluoroacetic acid salt] it was 0.008 µM.
On to `N#Cc1c[nH]c(C(=O)Nc2ccc(C3CCS(=O)(=O)CC3)cc2C2=CCCCC2)n1` [Example 35, 4-Cyano-1H-imidazole-2-carboxylic acid [2-cyclohex-1-enyl-4-(1,1-dioxo-hexahydro-1λ^6-thiopyran-4-yl)-phenyl]-amide], for which inhibition was half-maximal at 0.192 µM (IC50).
Compound `N#Cc1c[nH]c(C(=O)Nc2ccc(C3CCNCC3)cc2C2=CCS(=O)(=O)CC2)n1` [Example 36, 4-Cyano-1H-imidazole-2-carboxylic acid [2-(1,1-dioxo-1,2,3,6-tetrahydro-1λ^6-thiopyran-4-yl)-4-piperidin-4-yl-phenyl]-amide trifluoroacetic acid salt] came in with an IC50 of 0.192 µM.
For the compound `CS(=O)(=O)CCN1CCC(c2ccc(NC(=O)c3nc(C#N)c[nH]3)c(C3=CCCCC3)c2)CC1` [Example 40, 4-Cyano-1H-imidazole-2-carboxylic acid {2-cyclohex-1-enyl-4-[1-(2-methanesulfonyl-ethyl)-piperidin-4-yl]-phenyl}-amide], the half-maximal inhibitory concentration (IC50) is 0.116 µM.
`C[C@@H]1CC(c2ccc(NC(=O)c3ncc(C#N)[nH]3)c(C3=CCCCC3)c2)C[C@H](C)N1` (stereo partly drawn) [Example 51a, 5-Cyano-1H-imidazole-2-carboxylic acid [2-cyclohex-1-enyl-4-(cis-2,6-dimethyl-piperidin-4-yl)-phenyl]-amide bis trifluoroacetic acid salt]: 0.00472 µM corresponded to half-maximal inhibition (IC50).

The target of a further assay is T1, isolated kinase domain of the human FLT3 receptor (a.a. 571-993) (Homo sapiens, UniProt P36888).
T1 construct: human FLT3 receptor (a.a. 571-993)
T1 sequence (P36888 571-993): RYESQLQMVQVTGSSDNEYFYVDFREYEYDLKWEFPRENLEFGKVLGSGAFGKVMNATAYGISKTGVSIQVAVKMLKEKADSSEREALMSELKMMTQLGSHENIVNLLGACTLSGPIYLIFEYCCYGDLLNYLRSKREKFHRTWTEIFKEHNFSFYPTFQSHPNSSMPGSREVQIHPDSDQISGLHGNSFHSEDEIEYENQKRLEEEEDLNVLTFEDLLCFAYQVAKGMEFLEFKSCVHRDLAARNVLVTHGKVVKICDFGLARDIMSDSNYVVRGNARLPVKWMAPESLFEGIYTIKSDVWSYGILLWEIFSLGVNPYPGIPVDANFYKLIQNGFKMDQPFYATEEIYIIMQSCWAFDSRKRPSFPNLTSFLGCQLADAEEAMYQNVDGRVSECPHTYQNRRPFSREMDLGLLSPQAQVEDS
Nature of the assay: FLT3 fluorescence polarization kinase assay. In kind it is biochemical. To be noted: 10 nM FLT3 571-993, 150 uM ATP; uncertainty ±10%; read-out: Flt-3 Kinase IC50. The text has this:
The FLT3 FP assay utilizes the fluorescein-labeled phosphopeptide and the anti-phosphotyrosine antibody included in the Panvera Phospho-Tyrosine Kinase Kit (Green) supplied by Invitrogen. When FLT3 phosphorylates polyGlu4Tyr, the fluorescein-labeled phosphopeptide is displaced from the anti-phosphotyrosine antibody by the phosphorylated poly Glu4Tyr, thus decreasing the FP value. […] The kinase reaction is stopped with the addition of EDTA. The fluorescein-labeled phosphopeptide and the anti-phosphotyrosine antibody are added and incubated for 30 minutes at room temperature.
Data points are an average of triplicate samples. Inhibition and IC50 data analysis was done with GraphPad Prism using a non-linear regression fit with a multiparamater, sigmoidal dose-response (variable slope) equation.
(In fluorescence polarisation assays a small probe gives low polarisation when free and higher when bound to something large.)
In the case of `Cc1cscc1-c1cc(N2CCN(C)CC2)ccc1NC(=O)c1ccc(C#N)o1` [Example 5, 5-Cyano-furan-2-carboxylic acid [4-(4-methyl-piperazin-1-yl)-2-(4-methyl-thiophen-3-yl)-phenyl]-amide], the IC50 came out at 0.01 µM.
Same read-out and setting: in the case of `N#Cc1c[nH]c(C(=O)Nc2ccc(C3CCNCC3)cc2C2=CCCCC2)c1` [Example 13, 4-Cyano-1H-pyrrole-2-carboxylic acid (2-cyclohex-1-enyl-4-piperidin-4-yl-phenyl)-amide trifluoroacetic acid salt] it was 0.029 µM; in that of `CN(C)CC(=O)N1CCC(c2ccc(NC(=O)c3nc(C#N)c[nH]3)c(C3=CCC(C)(C)CC3)n2)CC1` [Example 55, 4-Cyano-1H-imidazole-2-carboxylic acid [1′-(2-dimethylamino-acetyl)-6-(4,4-dimethyl-cyclohex-1-enyl)-1′,2′,3′,4′,5′,6′-hexahydro-[2,4′]bipyridinyl-5-yl]-amide trifluoroacetic acid salt], 0.034 µM.
